{"source": "the kinase profiling compilation of Christmann-Franck et al. (2016)", "experiment_in_all_cases": "KINOMEscan competition binding", "conditions_in_all_cases": "compound 10.0 µM", "key": {"AAK1 (human)": {"target": "AAK1 (human) (UniProt Q2M2I8)"}, "ACVR1B (human)": {"target": "ACVR1B (human) (UniProt P36896)"}, "ACVR2B (human)": {"target": "ACVR2B (human) (UniProt Q13705)", "sequence (Q13705 whole entry, looked up)": "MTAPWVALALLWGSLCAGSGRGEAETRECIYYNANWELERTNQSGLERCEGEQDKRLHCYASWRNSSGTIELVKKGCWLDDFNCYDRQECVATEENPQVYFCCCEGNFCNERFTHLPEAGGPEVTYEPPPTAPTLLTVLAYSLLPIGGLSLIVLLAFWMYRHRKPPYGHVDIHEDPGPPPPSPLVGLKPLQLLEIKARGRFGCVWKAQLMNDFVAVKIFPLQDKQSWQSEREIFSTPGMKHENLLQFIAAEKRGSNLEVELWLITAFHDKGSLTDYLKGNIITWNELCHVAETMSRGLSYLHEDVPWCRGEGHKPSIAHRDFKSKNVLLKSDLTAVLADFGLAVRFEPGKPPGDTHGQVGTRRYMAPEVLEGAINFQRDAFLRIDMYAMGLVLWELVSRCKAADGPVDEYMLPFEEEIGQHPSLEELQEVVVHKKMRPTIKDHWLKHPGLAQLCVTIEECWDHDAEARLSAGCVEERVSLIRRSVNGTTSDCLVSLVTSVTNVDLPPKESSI"}, "ADCK3 (human)": {"target": "ADCK3 (human) (UniProt Q8NI60)"}, "ALK (human)": {"target": "ALK (human) (UniProt Q9UM73)"}, "AXL (human)": {"target": "AXL (human) (UniProt P30530)"}, "BMPR2 (human)": {"target": "BMPR2 (human) (UniProt Q13873)"}, "BRAF (human)": {"target": "BRAF (human) (UniProt P15056)"}, "BTK (human)": {"target": "BTK (human) (UniProt Q06187)"}, "CAMK4 (human)": {"target": "CAMK4 (human) (UniProt Q16566)"}, "CDK11B (human)": {"target": "CDK11B (human) (UniProt P21127)"}, "CDK9 (human)": {"target": "CDK9 (human) (UniProt P50750)", "sequence (P50750 whole entry, looked up)": "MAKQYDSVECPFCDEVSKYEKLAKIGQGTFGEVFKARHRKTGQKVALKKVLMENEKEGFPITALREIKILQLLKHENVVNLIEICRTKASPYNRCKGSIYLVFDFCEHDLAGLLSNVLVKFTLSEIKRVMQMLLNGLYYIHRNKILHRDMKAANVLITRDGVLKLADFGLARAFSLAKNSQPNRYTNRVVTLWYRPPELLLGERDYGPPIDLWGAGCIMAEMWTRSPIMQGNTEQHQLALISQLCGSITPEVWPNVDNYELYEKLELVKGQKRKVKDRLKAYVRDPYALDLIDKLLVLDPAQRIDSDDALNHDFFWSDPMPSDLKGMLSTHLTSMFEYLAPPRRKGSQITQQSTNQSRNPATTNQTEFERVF"}, "CSNK1D (human)": {"target": "CSNK1D (human) (UniProt P48730)"}, "CSNK1G2 (human)": {"target": "CSNK1G2 (human) (UniProt P78368)"}, "DCLK1 (human)": {"target": "DCLK1 (human) (UniProt O15075)"}, "ERBB2 (human)": {"target": "ERBB2 (human) (UniProt P04626)"}, "ERN1 (human)": {"target": "ERN1 (human) (UniProt O75460)"}, "GAK (human)": {"target": "GAK (human) (UniProt O14976)"}, "HCK (human)": {"target": "HCK (human) (UniProt P08631)"}, "[1]": {"target": "JAK2 JH1 catalytic (human) (UniProt O60674)"}, "[2]": {"target": "JAK3 JH1 catalytic (human) (UniProt P52333)"}, "MAP2K2 (human)": {"target": "MAP2K2 (human) (UniProt P36507)"}, "MAP3K12 (human)": {"target": "MAP3K12 (human) (UniProt Q12852)", "sequence (Q12852 whole entry, looked up)": "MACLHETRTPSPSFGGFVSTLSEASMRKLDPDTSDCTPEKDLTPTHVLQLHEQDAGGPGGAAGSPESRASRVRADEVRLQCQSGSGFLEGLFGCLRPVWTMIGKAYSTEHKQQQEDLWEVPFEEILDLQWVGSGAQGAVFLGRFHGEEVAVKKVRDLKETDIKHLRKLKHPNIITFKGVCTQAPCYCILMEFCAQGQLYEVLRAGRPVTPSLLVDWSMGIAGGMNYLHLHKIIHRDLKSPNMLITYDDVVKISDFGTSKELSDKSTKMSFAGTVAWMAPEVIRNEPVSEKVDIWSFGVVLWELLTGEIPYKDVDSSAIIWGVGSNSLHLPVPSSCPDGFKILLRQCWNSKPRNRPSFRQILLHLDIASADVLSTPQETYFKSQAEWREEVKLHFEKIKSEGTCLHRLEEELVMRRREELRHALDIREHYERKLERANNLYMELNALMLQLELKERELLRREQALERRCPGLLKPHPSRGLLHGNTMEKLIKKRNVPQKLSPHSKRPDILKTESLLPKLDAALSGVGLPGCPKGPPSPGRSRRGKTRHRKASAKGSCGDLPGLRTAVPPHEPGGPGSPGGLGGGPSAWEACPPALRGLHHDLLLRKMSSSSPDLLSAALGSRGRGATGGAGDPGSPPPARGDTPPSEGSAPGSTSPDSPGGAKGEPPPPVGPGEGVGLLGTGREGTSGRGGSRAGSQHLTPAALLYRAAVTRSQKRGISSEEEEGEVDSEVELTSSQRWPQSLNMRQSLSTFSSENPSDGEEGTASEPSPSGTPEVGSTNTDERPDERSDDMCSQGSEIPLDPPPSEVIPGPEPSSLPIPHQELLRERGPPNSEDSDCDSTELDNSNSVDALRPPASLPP"}, "MAP3K9 (human)": {"target": "MAP3K9 (human) (UniProt P80192)"}, "MAPK14 (human)": {"target": "MAPK14 (human) (UniProt Q16539)", "sequence (Q16539 whole entry, looked up)": "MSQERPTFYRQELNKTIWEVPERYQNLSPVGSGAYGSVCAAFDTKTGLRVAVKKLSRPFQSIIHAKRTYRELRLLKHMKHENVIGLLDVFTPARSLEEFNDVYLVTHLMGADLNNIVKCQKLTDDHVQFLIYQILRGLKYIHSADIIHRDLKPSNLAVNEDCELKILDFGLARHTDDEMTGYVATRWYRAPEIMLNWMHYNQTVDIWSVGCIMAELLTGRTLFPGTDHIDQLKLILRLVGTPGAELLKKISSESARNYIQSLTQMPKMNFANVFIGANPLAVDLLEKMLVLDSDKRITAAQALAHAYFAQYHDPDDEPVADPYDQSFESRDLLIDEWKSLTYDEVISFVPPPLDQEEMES"}, "MAPK3 (human)": {"target": "MAPK3 (human) (UniProt P27361)"}, "MET (human)": {"target": "MET (human) (UniProt P08581)", "sequence (P08581 whole entry, looked up)": "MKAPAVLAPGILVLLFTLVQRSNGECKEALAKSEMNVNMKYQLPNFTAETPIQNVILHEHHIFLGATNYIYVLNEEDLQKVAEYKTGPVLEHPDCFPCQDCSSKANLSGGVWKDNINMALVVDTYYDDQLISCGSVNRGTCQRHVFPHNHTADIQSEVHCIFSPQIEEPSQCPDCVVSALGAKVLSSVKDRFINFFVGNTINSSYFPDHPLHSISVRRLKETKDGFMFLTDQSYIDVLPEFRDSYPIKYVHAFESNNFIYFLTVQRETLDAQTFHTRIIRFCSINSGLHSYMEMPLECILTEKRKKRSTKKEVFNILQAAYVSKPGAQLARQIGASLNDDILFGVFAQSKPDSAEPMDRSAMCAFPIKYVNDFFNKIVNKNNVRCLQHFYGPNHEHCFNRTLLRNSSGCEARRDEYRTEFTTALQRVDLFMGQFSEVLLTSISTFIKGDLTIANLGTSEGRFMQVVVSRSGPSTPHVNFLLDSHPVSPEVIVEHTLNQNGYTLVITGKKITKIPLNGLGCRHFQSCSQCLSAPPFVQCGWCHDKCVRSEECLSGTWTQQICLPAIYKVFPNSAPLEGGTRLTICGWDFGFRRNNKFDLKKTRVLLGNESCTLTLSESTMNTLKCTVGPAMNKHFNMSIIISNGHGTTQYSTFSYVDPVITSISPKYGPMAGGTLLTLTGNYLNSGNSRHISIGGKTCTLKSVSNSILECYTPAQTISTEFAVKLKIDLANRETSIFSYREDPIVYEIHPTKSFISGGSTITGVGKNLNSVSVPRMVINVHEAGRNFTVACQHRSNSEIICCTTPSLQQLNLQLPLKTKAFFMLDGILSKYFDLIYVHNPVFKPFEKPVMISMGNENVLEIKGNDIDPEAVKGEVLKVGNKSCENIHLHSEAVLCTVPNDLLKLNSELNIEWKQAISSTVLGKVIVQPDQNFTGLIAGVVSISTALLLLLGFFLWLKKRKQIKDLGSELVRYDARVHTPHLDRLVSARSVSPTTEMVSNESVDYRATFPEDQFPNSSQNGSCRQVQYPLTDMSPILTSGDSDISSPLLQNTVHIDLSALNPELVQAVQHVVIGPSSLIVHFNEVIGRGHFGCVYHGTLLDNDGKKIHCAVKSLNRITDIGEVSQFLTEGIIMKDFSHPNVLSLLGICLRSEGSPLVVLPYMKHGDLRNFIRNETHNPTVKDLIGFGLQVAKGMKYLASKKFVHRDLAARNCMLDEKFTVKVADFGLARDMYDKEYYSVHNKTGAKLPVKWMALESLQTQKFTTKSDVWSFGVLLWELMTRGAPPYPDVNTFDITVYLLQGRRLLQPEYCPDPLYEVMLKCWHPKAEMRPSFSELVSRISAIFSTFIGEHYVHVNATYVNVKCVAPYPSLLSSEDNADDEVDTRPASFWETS"}, "MKNK1 (human)": {"target": "MKNK1 (human) (UniProt Q9BUB5)"}, "MKNK2 (human)": {"target": "MKNK2 (human) (UniProt Q9HBH9)"}, "NUAK2 (human)": {"target": "NUAK2 (human) (UniProt Q9H093)"}, "PDGFRA (human)": {"target": "PDGFRA (human) (UniProt P16234)"}, "PIK3CG (human)": {"target": "PIK3CG (human) (UniProt P48736)"}, "PKN1 (human)": {"target": "PKN1 (human) (UniProt Q16512)"}, "PLK4 (human)": {"target": "PLK4 (human) (UniProt O00444)"}, "PTK2 (human)": {"target": "PTK2 (human) (UniProt Q05397)"}, "RAF1 (human)": {"target": "RAF1 (human) (UniProt P04049)"}, "RET (human)": {"target": "RET (human) (UniProt P07949)", "sequence (P07949 whole entry, looked up)": "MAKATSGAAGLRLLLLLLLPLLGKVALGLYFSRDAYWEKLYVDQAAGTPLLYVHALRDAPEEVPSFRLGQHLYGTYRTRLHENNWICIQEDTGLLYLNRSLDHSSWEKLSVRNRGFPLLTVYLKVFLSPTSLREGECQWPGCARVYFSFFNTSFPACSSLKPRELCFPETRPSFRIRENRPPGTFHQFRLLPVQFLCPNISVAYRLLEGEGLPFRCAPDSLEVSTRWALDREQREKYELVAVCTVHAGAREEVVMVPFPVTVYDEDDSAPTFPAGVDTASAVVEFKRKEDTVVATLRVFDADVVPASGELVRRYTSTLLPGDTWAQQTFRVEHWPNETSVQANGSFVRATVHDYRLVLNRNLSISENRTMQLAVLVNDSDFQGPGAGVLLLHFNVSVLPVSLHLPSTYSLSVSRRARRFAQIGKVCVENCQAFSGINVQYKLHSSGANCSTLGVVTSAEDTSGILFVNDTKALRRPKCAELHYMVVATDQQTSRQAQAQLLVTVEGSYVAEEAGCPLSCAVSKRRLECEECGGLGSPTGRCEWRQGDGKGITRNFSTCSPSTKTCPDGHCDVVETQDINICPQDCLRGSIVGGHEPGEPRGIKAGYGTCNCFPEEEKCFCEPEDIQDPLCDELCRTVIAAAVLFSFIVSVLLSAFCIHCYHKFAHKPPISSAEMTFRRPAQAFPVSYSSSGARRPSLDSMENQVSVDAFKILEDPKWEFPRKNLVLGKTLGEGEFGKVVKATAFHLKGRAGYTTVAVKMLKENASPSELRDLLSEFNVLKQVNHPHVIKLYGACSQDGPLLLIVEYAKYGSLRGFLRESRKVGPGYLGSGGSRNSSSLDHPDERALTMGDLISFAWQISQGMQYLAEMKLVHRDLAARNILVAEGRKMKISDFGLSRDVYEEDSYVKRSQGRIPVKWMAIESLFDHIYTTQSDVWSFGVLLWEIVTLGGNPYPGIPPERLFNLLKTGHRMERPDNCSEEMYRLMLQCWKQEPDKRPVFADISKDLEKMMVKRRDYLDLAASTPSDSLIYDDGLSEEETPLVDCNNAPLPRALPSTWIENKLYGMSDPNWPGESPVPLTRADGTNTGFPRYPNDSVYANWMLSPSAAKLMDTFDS"}, "STK25 (human)": {"target": "STK25 (human) (UniProt O00506)", "sequence (O00506 whole entry, looked up)": "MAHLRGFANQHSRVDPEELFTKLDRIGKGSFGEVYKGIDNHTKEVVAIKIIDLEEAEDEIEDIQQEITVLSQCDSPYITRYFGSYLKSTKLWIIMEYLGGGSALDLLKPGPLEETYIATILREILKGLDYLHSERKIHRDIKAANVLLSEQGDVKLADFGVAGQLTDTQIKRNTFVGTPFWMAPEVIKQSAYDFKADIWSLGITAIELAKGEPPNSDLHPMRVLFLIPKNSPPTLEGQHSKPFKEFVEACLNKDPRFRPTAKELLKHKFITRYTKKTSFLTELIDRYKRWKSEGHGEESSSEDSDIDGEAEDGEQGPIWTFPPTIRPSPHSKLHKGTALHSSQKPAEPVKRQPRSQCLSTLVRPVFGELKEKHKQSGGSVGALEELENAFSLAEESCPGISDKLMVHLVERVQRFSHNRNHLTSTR"}, "STK32C (human)": {"target": "STK32C (human) (UniProt Q86UX6)"}, "SYK (human)": {"target": "SYK (human) (UniProt P43405)"}, "ULK2 (human)": {"target": "ULK2 (human) (UniProt Q8IYT8)"}}}
{"compound": "O=C(Nc1ccc(Oc2ncnc3[nH]ncc23)cc1)Nc1ccc(Cl)c(C(F)(F)F)c1", "values": [{"measurement": "kinase still bound, per cent of control", "setting": "AAK1 (human)", "value": 85, "unit": "%"}, {"measurement": "kinase still bound, per cent of control", "setting": "ACVR1B (human)", "value": 100, "unit": "%"}, {"measurement": "kinase still bound, per cent of control", "setting": "ACVR2B (human)", "value": 100, "unit": "%"}, {"measurement": "kinase still bound, per cent of control", "setting": "ADCK3 (human)", "value": 100, "unit": "%"}, {"measurement": "kinase still bound, per cent of control", "setting": "ALK (human)", "value": 57, "unit": "%"}, {"measurement": "kinase still bound, per cent of control", "setting": "AXL (human)", "value": 25, "unit": "%"}, {"measurement": "kinase still bound, per cent of control", "setting": "BMPR2 (human)", "value": 81, "unit": "%"}, {"measurement": "kinase still bound, per cent of control", "setting": "BRAF (human)", "value": 3.8, "unit": "%"}, {"measurement": "kinase still bound, per cent of control", "setting": "BTK (human)", "value": 96, "unit": "%"}, {"measurement": "kinase still bound, per cent of control", "setting": "CAMK4 (human)", "value": 100, "unit": "%"}, {"measurement": "kinase still bound, per cent of control", "setting": "CDK11B (human)", "value": 69, "unit": "%"}, {"measurement": "kinase still bound, per cent of control", "setting": "CDK9 (human)", "value": 56, "unit": "%"}, {"measurement": "kinase still bound, per cent of control", "setting": "CSNK1D (human)", "value": 88, "unit": "%"}, {"measurement": "kinase still bound, per cent of control", "setting": "CSNK1G2 (human)", "value": 94, "unit": "%"}, {"measurement": "kinase still bound, per cent of control", "setting": "DCLK1 (human)", "value": 82, "unit": "%"}, {"measurement": "kinase still bound, per cent of control", "setting": "ERBB2 (human)", "value": 100, "unit": "%"}, {"measurement": "kinase still bound, per cent of control", "setting": "ERN1 (human)", "value": 100, "unit": "%"}, {"measurement": "kinase still bound, per cent of control", "setting": "GAK (human)", "value": 90, "unit": "%"}, {"measurement": "kinase still bound, per cent of control", "setting": "HCK (human)", "value": 32, "unit": "%"}, {"measurement": "kinase still bound, per cent of control", "setting": "[1]", "value": 80, "unit": "%"}, {"measurement": "kinase still bound, per cent of control", "setting": "[2]", "value": 75, "unit": "%"}, {"measurement": "kinase still bound, per cent of control", "setting": "MAP2K2 (human)", "value": 60, "unit": "%"}, {"measurement": "kinase still bound, per cent of control", "setting": "MAP3K12 (human)", "value": 100, "unit": "%"}, {"measurement": "kinase still bound, per cent of control", "setting": "MAP3K9 (human)", "value": 100, "unit": "%"}, {"measurement": "kinase still bound, per cent of control", "setting": "MAPK14 (human)", "value": 0, "unit": "%"}, {"measurement": "kinase still bound, per cent of control", "setting": "MAPK3 (human)", "value": 100, "unit": "%"}, {"measurement": "kinase still bound, per cent of control", "setting": "MET (human)", "value": 58, "unit": "%"}, {"measurement": "kinase still bound, per cent of control", "setting": "MKNK1 (human)", "value": 5.4, "unit": "%"}, {"measurement": "kinase still bound, per cent of control", "setting": "MKNK2 (human)", "value": 0.05, "unit": "%"}, {"measurement": "kinase still bound, per cent of control", "setting": "NUAK2 (human)", "value": 73, "unit": "%"}, {"measurement": "kinase still bound, per cent of control", "setting": "PDGFRA (human)", "value": 0.4, "unit": "%"}, {"measurement": "kinase still bound, per cent of control", "setting": "PIK3CG (human)", "value": 98, "unit": "%"}, {"measurement": "kinase still bound, per cent of control", "setting": "PKN1 (human)", "value": 100, "unit": "%"}, {"measurement": "kinase still bound, per cent of control", "setting": "PLK4 (human)", "value": 52, "unit": "%"}, {"measurement": "kinase still bound, per cent of control", "setting": "PTK2 (human)", "value": 94, "unit": "%"}, {"measurement": "kinase still bound, per cent of control", "setting": "RAF1 (human)", "value": 1, "unit": "%"}, {"measurement": "kinase still bound, per cent of control", "setting": "RET (human)", "value": 0, "unit": "%"}, {"measurement": "kinase still bound, per cent of control", "setting": "STK25 (human)", "value": 79, "unit": "%"}, {"measurement": "kinase still bound, per cent of control", "setting": "STK32C (human)", "value": 96, "unit": "%"}, {"measurement": "kinase still bound, per cent of control", "setting": "SYK (human)", "value": 56, "unit": "%"}, {"measurement": "kinase still bound, per cent of control", "setting": "ULK2 (human)", "value": 82, "unit": "%"}]}
